Marks after values point to notes of the source that are not given here.
Legend:
[1] = system: streptozotocin–nicotinamide-induced type 2 diabetic rats; test: Fasting blood glucose, insulin and Hb in STZ–NA diabetic rats; assay type: in vivo, Wistar rats; conditions: MET 150 mg/kg orally; 4 weeks
Description: (§1) NA was dissolved in normal saline.
(§2) At the end of the 28th day, blood samples were withdrawn from the retro-orbital venous plexus under light ether anaesthesia into two sampling tubes, one containing Na-EDTA at day 28 post-medication for the estimation of Hb([22]). The second blood sample was centrifuged at 3500 rpm for 15 min to separate sera for the estimation of insulin level([23]). Other biochemical parameters such as alanine transaminase and aspartate transaminase activities in serum were measured([24]). Serum levels of total bilirubin([25]), total protein([26]), TAG([27]), total cholesterol([28]), HDL-cholesterol([29]) and LDL-cholesterol([30]) were measured using commercially available kits (Quimica Clinica). Preparation of pancreatic homogenate was done according to Mansour et al.([31]). The activities of superoxide dismutase (SOD), glutathione peroxidase (GPx) and catalase (CAT) in hepatic and pancreatic tissues were estimated([32]–[34]), respectively. Reduced glutathione (GSH)([35]), lipid peroxidation products were estimated by determining malondialdehyde (MDA) content in the hepatic and pancreatic tissue([36]) and GLUT2 was determined using commercial diagnostic kits (Chema Diagnostica)([37]).

[2] = system: streptozotocin–nicotinamide-induced type 2 diabetic rats; test: Serum hepatic markers, bilirubin and total protein in STZ–NA diabetic rats; assay type: in vivo, Wistar rats; conditions: MET 150 mg/kg orally, 4 weeks
Description: as §1, §2

[3] = system: streptozotocin–nicotinamide-induced type 2 diabetic rats; test: Pancreatic oxidative stress biomarkers in STZ–NA diabetic rats; assay type: in vivo, Wistar rats; conditions: MET 150 mg/kg
Description: as §1, §2

GLUT2 = GLUT2 protein levels in liver and pancreas of diabetic rats; assay type: in vivo, Wistar rats; conditions: MET 150 mg/kg
Description: as §1, §2

PTP1B mRNA = test: Hepatic gene expression by quantitative real-time PCR: PTP1B; conditions: liver mRNA; MET 150 mg/kg
Description: (§3) Total RNA was isolated from rat livers using an Rneasy Mini Kit according to the manufacturer's protocol (Qiagen). First-strand cDNA synthesis from 1 µg total RNA was done employing a reverse transcriptase kit and oligo(dT) (Thermo Scientific). PTP1B, phosphoenolpyruvate carboxykinase (PEPCK), glucose 6-phosphatase (G6Pase), GLUT2 (Slc2a2) and insulin receptor (INR) target genes were amplified by quantitative real-time-PCR using specific primers (Supplementary Table S1). cDNA was added to a Quantifast SYBR Green qPCR Master Mix (Qiagen) containing 30 pg/ml of each primer. […] The β-actin gene was amplified in the same reaction as a reference gene to normalise data. Relative gene expression was calculated using the Livak & Schmittgen method([42]).

[4] = system: phosphoenolpyruvate carboxykinase (PEPCK) mRNA; test: Hepatic gene expression by quantitative real-time PCR: PEPCK; conditions: MET 150 mg/kg
Description: as §3

[5] = system: glucose 6-phosphatase (G6Pase) mRNA; test: Hepatic gene expression by quantitative real-time PCR: G6Pase; conditions: MET 150 mg/kg
Description: as §3

GLUT2 gene (Slc2a2) mRNA = test: Hepatic gene expression by quantitative real-time PCR: Slc2a2; conditions: liver mRNA; MET 150 mg/kg
Description: as §3

[6] = system: insulin receptor (INR) mRNA; test: Hepatic gene expression by quantitative real-time PCR: insulin receptor; conditions: MET 150 mg/kg
Description: as §3

SMILES	Hb [1]	Total bilirubin [2]	Total protein [2]	Effect on MDA level in the pancreas of diabetic rats [3]	Increase in pancreatic GPx compared with diabetic control rats [3]	Increase in pancreatic GSH content [3]	GLUT2 in the liver compared with the diabetic control (GLUT2)	GLUT2 in the pancreas compared with the diabetic control (GLUT2)	PTP1B expression level, % of the levels in the diabetic group (PTP1B mRNA)	Expression of PEPCK in the liver [4]	Expression of G6Pase in the liver [5]	Slc2a2 expression, % of the normal level (GLUT2 gene (Slc2a2) mRNA)	Effect of STZ on hepatic insulin receptor mRNA levels [6]	melting point
CN(C)C(=N)N=C(N)N [MET, metformin]	135† g/l	4† mg/l	114* g/l	did not significantly affect	63%	46%	significantly increased	significantly increased	approximately 75%	decreased expression	decreased expression	92%	reversed	–
CC1(C)CC[C@]2(C)CC[C@]3(C)C(=C[C@H](O)C4[C@@]5(C)CC[C@H](O)[C@@](C)(C(=O)O)C5CC[C@]43C)C2C1 (stereo partly drawn) [Compound F3, 3β,11β-dihydroxyolean-12-en-23-oic acid]	–	–	–	–	–	–	–	–	–	–	–	–	–	308 to 309 °C
